The structures appear in SMILES notation.

One experiment concerns NPFF receptor. Conditions: rat tissue; cited from earlier work.
Experiment [1] deals with T1, human somatostatin receptor subtype SSTR5 (Homo sapiens, UniProt P35346).
T1 construct: expressed in transfected cells; host or cells: Chinese hamster ovary (CHO) cells, membranes
The experiment in a line: Competition binding with 125I-LTT-sst-28, CHO cell membranes, SSTR5. As to conditions: membranes of CHO cells stably transfected with human SSTR5, Ki from IC50 by Cheng-Prusoff. The procedure: (§1) The affinity of the compounds of the invention for the five human somatostatin receptor subtypes (SSTR1, SSTR2, SSTR3, SSTR4, and SSTR5) was determined in competition binding assays with (^125I-Tyr)-[Leu^8, DTrp^22]-somatostatin-28 (^125I-LTT-sst-28). The biological material for these experiments consisted of membranes from Chinese hamster ovary (CHO) cells stably transfected with one of the five human somatostatin receptor subtypes. Membranes (3-20 μg of total protein per sample) and trace amount of ^125I-LTT-sst-28 were incubated in 10 mM Hepes, 1 mM EDTA, 5 mM MgCl2, 5 mg/ml of BSA and 30 μg/ml bacitracin, pH 7.6 with six concentrations of the compounds. Each concentration was run in duplicate. Nonspecific binding was defined by 1 μM somatostatin-14 (sst-14) and corresponded to 5-25% of total binding. After 60 min at room temperature, incubations were terminated by rapid vacuum filtration through GF/B glass fiber filter mats (presoaked at 4° C. in 200 ml of 10 mM Hepes, 1 mM EDTA, 5 mM MgCl2, pH 7.6) and three 5 ml washes with ice-cold wash buffer (20 mM TRIS, 1 mM EDTA, 5 mM MgCl2, pH 7.4). The filters were then dried, impregnated with scintillate and their radioactivity was measured by scintillation counting. The analysis of the experiments was carried out by nonlinear least square curve fitting. Affinity constants (Ki) were calculated from the IC50 values according to the Cheng-Prusoff's equation (Cheng and Prusoff, 1973). Experiments were repeated a minimum of three times.

Experiment [2] concerns the target T2, human somatostatin receptor subtype SSTR2 (Homo sapiens, UniProt P30874).
T2 construct: expressed in transfected cells; host or cells: Chinese hamster ovary (CHO) cells, membranes
The experiment can be described thus: Competition binding with 125I-LTT-sst-28, CHO cell membranes, SSTR2. As to conditions: membranes of CHO cells stably transfected with human SSTR2, Ki from IC50 by Cheng-Prusoff. The procedure: as §1

In experiment [3] the target is T3, human somatostatin receptor subtype SSTR3 (Homo sapiens, UniProt P32745).
T3 construct: expressed in transfected cells; host or cells: Chinese hamster ovary (CHO) cells, membranes
T3 sequence (P32745 whole entry): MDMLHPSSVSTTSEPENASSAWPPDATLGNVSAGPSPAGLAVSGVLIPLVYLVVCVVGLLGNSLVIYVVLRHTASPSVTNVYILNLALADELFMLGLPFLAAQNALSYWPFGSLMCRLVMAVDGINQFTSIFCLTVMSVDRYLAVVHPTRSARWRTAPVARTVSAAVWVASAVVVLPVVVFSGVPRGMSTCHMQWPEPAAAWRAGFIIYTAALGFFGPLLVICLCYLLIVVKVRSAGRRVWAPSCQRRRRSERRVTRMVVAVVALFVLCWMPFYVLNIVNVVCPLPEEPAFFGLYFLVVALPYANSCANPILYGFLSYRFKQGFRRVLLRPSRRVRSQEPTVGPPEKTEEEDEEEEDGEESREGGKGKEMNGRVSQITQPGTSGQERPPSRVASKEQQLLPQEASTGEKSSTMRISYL
The experiment can be described thus: Competition binding with 125I-LTT-sst-28, CHO cell membranes, SSTR3. Conditions: membranes of CHO cells stably transfected with human SSTR3, Ki from IC50 by Cheng-Prusoff. The procedure: as §1

Experiment [4] concerns the target T4, human somatostatin receptor subtype SSTR1 (Homo sapiens, UniProt P30872).
T4 construct: expressed in transfected cells; host or cells: Chinese hamster ovary (CHO) cells, membranes
The experiment can be described thus: Competition binding with 125I-LTT-sst-28, CHO cell membranes, SSTR1. Conditions: membranes of CHO cells stably transfected with human SSTR1, Ki from IC50 by Cheng-Prusoff. The procedure: as §1

The target in experiment [5] is T5, human somatostatin receptor subtype SSTR4 (Homo sapiens, UniProt P31391).
T5 construct: expressed in transfected cells; host or cells: Chinese hamster ovary (CHO) cells, membranes
T5 sequence (P31391 whole entry): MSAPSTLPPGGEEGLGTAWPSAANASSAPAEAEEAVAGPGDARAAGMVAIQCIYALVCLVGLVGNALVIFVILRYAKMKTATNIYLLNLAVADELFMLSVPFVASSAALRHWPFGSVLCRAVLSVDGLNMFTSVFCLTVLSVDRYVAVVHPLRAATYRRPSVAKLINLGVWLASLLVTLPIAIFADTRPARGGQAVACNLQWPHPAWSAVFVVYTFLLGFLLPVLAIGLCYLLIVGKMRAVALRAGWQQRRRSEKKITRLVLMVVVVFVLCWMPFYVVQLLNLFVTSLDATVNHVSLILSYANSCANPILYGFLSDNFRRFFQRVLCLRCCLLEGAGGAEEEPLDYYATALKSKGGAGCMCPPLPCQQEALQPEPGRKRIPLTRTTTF
The experiment in a line: Competition binding with 125I-LTT-sst-28, CHO cell membranes, SSTR4. Conditions: membranes of CHO cells stably transfected with human SSTR4, Ki from IC50 by Cheng-Prusoff. On the procedure: as §1

T2 sequence (P30874 whole entry): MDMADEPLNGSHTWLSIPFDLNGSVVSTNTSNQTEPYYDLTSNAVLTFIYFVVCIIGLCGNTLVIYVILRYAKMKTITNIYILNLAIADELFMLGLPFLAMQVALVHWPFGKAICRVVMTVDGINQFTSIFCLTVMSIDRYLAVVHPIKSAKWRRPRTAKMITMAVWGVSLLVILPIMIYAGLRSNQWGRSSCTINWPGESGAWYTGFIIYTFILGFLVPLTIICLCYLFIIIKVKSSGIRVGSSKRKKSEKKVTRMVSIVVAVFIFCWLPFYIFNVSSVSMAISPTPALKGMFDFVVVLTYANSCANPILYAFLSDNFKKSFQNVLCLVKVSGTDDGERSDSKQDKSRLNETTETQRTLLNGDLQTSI
T1 sequence (P35346 whole entry): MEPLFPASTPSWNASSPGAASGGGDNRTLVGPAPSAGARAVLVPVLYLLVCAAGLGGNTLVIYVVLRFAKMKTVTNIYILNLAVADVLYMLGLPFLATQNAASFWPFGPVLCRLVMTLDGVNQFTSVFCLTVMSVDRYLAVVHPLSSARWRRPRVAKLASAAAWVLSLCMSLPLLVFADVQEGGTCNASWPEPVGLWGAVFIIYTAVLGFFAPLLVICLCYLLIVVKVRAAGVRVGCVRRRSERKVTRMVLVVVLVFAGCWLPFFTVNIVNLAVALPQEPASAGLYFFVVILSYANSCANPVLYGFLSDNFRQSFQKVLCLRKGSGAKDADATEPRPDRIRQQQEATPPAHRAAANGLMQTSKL
T4 sequence (P30872 whole entry): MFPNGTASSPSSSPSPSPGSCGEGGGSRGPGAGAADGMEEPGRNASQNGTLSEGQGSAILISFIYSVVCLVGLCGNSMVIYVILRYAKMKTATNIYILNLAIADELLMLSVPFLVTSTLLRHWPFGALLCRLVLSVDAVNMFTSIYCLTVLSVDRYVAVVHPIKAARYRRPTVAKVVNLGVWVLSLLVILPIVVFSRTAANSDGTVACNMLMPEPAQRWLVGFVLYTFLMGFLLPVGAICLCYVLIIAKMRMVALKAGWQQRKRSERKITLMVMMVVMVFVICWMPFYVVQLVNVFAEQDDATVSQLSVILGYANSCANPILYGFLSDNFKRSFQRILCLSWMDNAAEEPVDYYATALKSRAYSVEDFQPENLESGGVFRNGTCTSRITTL

Consider `CN(C)c1cccc2c(S(=O)(=O)N[C@@H](CCCN=C(N)N)C(=O)N[C@@H](Cc3ccccc3)C(N)=O)cccc12` [Dansyl-RFamide], for which the “affinity for NPFF receptor” value in the experiment on NPFF receptor was 73 nM.
`Cc1ccc(S(=O)(=O)N[C@@H](CCCNC(=N)N)C(=O)N[C@@H](Cc2ccccc2)C(N)=O)c2ccccc12` [compound 1, N-((S)-1-carbamoyl-2-phenylethyl)-5-guanidino-(S)-2-(N′-(4-methyl-1-naphthalenesulfonyl)amino)pentanamide]: the Ki is more than 10000 nM in experiment [1]; more than 10000 nM in experiment [2]; more than 10000 nM in experiment [3]; 73 ± 19 nM in experiment [4]; 3.6 ± 0.7 nM in experiment [5].
For the compound `Cc1ccc(S(=O)(=O)N[C@@H](CCCNC(=N)N)C(=O)N[C@H](C(N)=O)C(c2ccccc2)c2ccccc2)c2ccccc12` [compound 2, N-((S)-1-carbamoyl-2,2-diphenylethyl)-5-guanidino-(S)-2-(N′-(4-methyl-1-naphthalenesulfonyl)amino)pentanamide], the Ki is more than 5000 nM in experiment [1]; more than 10000 nM in experiment [2]; more than 5000 nM in experiment [3]; 34 ± 14 nM in experiment [4]; 1.5 ± 0.7 nM in experiment [5].
Consider `Cc1ccc(S(=O)(=O)N[C@@H](CCCN)C(=O)N[C@@H](Cc2ccccc2)C(N)=O)c2ccccc12` [compound 3, 5-amino-N-((S)-1-carbamoyl-2-phenylethyl)-(S)-2-(N′-(4-methyl-1-naphthalenesulfonyl)amino)pentanamide], for which the Ki in experiment [1] was more than 1000 nM; in experiment [2] it was more than 1000 nM; in experiment [3] it was more than 1000 nM; in experiment [4] it was 260 ± 20 nM; in experiment [5] it was 6.5 ± 1.7 nM.
Consider `Cc1ccc(S(=O)(=O)N[C@@H](CCN)C(=O)N[C@@H](Cc2ccccc2)C(N)=O)c2ccccc12` [compound 5, 4-amino-N-((S)-1-carbamoyl-2-phenylethyl)-(S)-2-(N′-(4-methyl-1-naphthalenesulfonyl)amino)butanamide], for which the Ki in experiment [1] is 540 ± 80 nM; in experiment [2] it was more than 1000 nM; in experiment [4], 500 ± 150 nM.
On to `CCc1ccc(S(=O)(=O)N[C@@H](CCN)C(=O)N[C@@H](Cc2ccccc2)C(N)=O)c2ccccc12` [compound 6, 4-amino-N-((S)-1-carbamoyl-2-phenylethyl)-(S)-2-(N′-(4-ethyl-1-naphthalenesulfonyl)amino)butanamide], for which the Ki is more than 10000 nM in experiment [2], 990 ± 80 nM in experiment [4] and 2.3 ± 0.4 nM in experiment [5].
In the case of `Cc1ccc(S(=O)(=O)N[C@@H](CCN)C(=O)N[C@H](C(N)=O)C(c2ccccc2)c2ccccc2)c2ccccc12` [compound 7, 4-amino-N-((S)-1-carbamoyl-2,2-diphenylethyl)-(S)-2-(N′-(4-methyl-1-naphthalenesulfonyl)amino)butanamide], the Ki in experiment [1] was more than 10000 nM; in experiment [2] it was more than 10000 nM; in experiment [3], more than 5000 nM; in experiment [4], more than 1000 nM; in experiment [5], 5.3 ± 2.1 nM.

The record behind these values is patent US20070129313A1, “Sulfonylamino-peptidomimetics active on the somatostatin receptor subtypes 4 (sstr4) and 1 (sstr1)” (SIEGFRIED WURSTER, priority 2003, published 2007).
